Measured values as given in patent publication US10745416B2, “Macrocyclic compounds for treating disease” (Turning Point Therapeutics, Inc., priority 2017, dated 2020).

What was measured:
Assay in all cases: Cell proliferation assay (CellTiter-Glo, 72 hours)
KG-1 = format: cell-based, human; details: Homo sapiens, KG-1, anti-cell proliferation
Procedure: (§1) Human medulla thyroid carcinoma cell line TT (containing RET […] mutation) and acute myelogenous cell line KG-1 were purchased from ATCC. Human colon cancer cell line KMI2 (containing TPM3-TRKA) was obtained from NCI.
(§2) Two thousand cells per well were seeded in 384 well white plate for 24 hrs, and then treated with compounds for 72 hours (37° C., 5% CO2). Cell proliferation was measured using CellTiter-Glo luciferase-based ATP detection assay (Promega) following the manufactures's protocol. IC50 determinations were performed using GraphPad Prism software (GraphPad, Inc., San Diego, Calif.).

KM12 cell (TPM3-TRKA) = format: cell-based, human; details: Homo sapiens, KM12, anti-cell proliferation
Procedure: as §1, §2

BaF3 KIF5B-RET = biological target: T1, BaF3 KIF5B-RET (Homo sapiens, UniProt P07949); format: cell-based; details: anti-cell proliferation, read-out: BaF3 KIF5B-RET IC50
T1 construct: fused on or other part: P33176 (Kinesin-1 heavy chain)
T1 sequence (P07949 whole entry, change not shown, the tested form may be a part): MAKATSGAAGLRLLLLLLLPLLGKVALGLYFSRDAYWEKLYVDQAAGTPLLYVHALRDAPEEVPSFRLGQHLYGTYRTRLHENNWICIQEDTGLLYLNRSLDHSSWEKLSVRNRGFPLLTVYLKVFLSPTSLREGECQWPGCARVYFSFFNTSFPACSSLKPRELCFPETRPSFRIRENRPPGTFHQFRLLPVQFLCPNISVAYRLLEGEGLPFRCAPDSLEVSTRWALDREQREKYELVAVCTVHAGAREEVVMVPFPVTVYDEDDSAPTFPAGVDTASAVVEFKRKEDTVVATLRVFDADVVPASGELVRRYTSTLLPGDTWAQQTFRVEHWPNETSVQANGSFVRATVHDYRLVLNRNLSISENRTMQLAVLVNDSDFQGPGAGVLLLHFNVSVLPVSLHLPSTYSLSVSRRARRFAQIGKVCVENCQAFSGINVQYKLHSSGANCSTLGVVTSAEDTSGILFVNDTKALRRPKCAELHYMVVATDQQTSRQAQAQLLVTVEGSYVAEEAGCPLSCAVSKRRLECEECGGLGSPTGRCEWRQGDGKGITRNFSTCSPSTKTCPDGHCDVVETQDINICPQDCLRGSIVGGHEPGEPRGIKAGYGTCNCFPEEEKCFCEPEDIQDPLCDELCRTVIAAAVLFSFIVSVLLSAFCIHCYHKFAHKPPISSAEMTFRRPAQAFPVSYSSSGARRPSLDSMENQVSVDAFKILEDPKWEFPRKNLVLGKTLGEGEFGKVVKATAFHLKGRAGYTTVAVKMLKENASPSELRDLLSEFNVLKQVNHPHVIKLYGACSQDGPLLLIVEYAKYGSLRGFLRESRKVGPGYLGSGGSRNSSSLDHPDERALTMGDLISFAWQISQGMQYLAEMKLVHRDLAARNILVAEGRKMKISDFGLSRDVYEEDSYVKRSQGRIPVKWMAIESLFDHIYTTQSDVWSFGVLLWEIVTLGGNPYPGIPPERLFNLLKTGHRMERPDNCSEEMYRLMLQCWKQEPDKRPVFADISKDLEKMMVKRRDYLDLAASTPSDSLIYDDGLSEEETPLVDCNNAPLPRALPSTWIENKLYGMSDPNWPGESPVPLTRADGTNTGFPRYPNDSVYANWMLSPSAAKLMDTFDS
Excerpt: (§3) The KIF5B-RET gene was synthesized at GenScript and cloned into pCDH-CMV-MCS-EF1-Puro plasmid (System Biosciences, Inc). KIF5B-RET point mutation V804M was generated at GenScript by PCR and confirmed by sequencing. Ba/F3-KIF5B-RET wild type and mutant were generated by transducing Ba/F3 cells with lentivirus containing KIF5B-RET wide type or mutant. Stable cell lines were selected by puromycin treatment, followed by IL-3 withdrawal. Briefly, 5×10^6 Ba/F3 cells were transduced with lentivirus supernatant in the presence of 8 μg/mL protamine sulfate. The transduced cells were subsequently selected with 1 µg/mL puromycin in the presence of IL3-containing medium RPMI1640, plus 10% FBS. After 10-12 days of selection, the surviving cells were further selected for IL3 independent growth.
as §2

BaF3 EML4-ALK = biological target: T2, BaF3 EML4-ALK (Homo sapiens, UniProt Q9UM73); format: cell-based; details: anti-cell proliferation
T2 construct: The EML4-ALK gene (variant 1) was synthesized at GenScript and cloned into pCDH-CMV-MCS-EF1-Puro plasmid (System Biosciences, Inc); fused on or other part: Q9HC35 (Echinoderm microtubule-associated protein-like 4)
T2 sequence (Q9UM73 whole entry, change not shown, the tested form may be a part): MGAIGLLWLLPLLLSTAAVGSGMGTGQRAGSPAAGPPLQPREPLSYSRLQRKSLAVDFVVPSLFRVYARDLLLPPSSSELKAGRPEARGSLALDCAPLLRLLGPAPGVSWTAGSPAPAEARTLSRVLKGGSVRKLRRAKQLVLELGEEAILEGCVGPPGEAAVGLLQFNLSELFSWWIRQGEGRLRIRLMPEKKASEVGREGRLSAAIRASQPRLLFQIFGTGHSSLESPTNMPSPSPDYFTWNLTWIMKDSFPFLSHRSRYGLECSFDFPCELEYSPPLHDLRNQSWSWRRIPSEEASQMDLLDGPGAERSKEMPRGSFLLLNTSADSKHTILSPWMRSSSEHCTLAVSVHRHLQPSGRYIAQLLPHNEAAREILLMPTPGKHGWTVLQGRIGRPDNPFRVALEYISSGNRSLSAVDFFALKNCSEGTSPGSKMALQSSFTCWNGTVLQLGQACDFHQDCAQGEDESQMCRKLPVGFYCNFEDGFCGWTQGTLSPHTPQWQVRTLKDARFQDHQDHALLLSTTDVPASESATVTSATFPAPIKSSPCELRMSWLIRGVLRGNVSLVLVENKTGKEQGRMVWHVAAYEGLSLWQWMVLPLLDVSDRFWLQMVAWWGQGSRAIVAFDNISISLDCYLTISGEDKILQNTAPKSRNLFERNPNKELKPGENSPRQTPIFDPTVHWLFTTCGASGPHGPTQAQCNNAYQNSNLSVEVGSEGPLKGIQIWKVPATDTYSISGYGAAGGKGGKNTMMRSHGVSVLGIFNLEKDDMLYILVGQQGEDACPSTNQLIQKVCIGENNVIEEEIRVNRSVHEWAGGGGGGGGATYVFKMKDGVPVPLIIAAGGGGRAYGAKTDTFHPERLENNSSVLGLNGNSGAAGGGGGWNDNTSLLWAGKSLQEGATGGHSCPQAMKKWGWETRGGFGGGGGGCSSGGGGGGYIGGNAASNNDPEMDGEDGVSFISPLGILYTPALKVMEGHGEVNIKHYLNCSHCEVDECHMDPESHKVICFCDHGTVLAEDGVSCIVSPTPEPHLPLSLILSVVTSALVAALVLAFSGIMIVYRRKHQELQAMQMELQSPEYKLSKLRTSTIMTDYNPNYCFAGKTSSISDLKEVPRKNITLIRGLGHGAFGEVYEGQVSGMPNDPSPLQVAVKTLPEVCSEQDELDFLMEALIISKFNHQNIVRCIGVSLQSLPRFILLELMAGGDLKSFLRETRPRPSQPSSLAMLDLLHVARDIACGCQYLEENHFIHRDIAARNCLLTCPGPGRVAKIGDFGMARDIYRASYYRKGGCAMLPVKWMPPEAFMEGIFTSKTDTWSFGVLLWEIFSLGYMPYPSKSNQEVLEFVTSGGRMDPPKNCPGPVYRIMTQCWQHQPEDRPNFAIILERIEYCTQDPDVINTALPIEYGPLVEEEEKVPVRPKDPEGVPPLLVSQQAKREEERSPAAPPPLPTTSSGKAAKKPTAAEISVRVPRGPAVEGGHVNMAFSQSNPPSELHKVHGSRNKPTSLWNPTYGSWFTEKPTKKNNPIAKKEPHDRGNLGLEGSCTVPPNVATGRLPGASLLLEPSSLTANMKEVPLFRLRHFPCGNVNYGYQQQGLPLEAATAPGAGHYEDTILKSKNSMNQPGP
Procedure: The EML4-ALK gene (variant 1) was synthesized at GenScript and cloned into pCDH-CMV-MCS-EF1-Puro plasmid (System Biosciences, Inc). Ba/F3-EML4-ALK wild type were generated by transducing Ba/F3 cells with lentivirus containing EML4-ALK wide type. Stable cell lines were selected by puromycin treatment, followed by IL-3 withdrawal. Briefly, 5×10^6 Ba/F3 cells were transduced with lentivirus supernatant in the presence of 8 μg/mL protamine sulfate. The transduced cells were subsequently selected with 1 μg/mL puromycin in the presence of IL3-containing medium RPMI1640, plus 10% FBS. After 10-12 days of selection, the surviving cells were further selected for IL3 independent growth.
as §2

BaF3 KIF5B-RET_G810R = biological target: T3, BaF3 KIF5B-RET_G810R (Homo sapiens, UniProt P07949, G810R, cells depend on it); format: cell-based; details: anti-cell proliferation, read-out: BaF3 KIF5B-RET_G810R IC50
T3 construct: fused on or other part: P33176 (Kinesin-1 heavy chain)
T3 sequence (P07949 whole entry G810R, the tested form may be a part): as the sequence (P07949 whole entry, change not shown, the tested form may be a part) above, with G810R counted along it
Excerpt: [The source words this procedure for another variant and reports this variant under the same test.] as §3, §2

BaF3 KIF5B-RET_V804M = biological target: T4, BaF3 KIF5B-RET_V804M (Homo sapiens, UniProt P07949, V804M, cells depend on it); format: cell-based; details: anti-cell proliferation, read-out: BaF3 KIF5B-RET_V804M IC50
T4 construct: fused on or other part: P33176 (Kinesin-1 heavy chain)
T4 sequence (P07949 whole entry V804M, the tested form may be a part): as the sequence (P07949 whole entry, change not shown, the tested form may be a part) above, with V804M counted along it
Excerpt: as §3, §2

| GI50 (BaF3 KIF5B-RET) | GI50 (BaF3 EML4-ALK) | GI50 (BaF3 KIF5B-RET_G810R) | GI50 (BaF3 KIF5B-RET_V804M) | Compound | IC50 (KG-1) | IC50 (KM12 cell (TPM3-TRKA)) |
| --- | --- | --- | --- | --- | --- | --- |
| 8 µM | > 10 µM | – | – | CC(=O)N1C[C@@H]2Oc3cn4ncc5c4nc3N(Cc3cc(F)cnc3O[C@@H](C)CNC5=O)[C@@H]2C1 [Compound 36, (3aR,11S,20aS)-2-acetyl-7-fluoro-11-methyl-2,3,3a,12,13,20a-hexahydro-1H, 5H-17,19-(metheno)pyrazolo[4,3-f]pyrido [3,2-l]pyrrolo[3′,4′:5,6][1,4]oxazino[3,4-i][1,4,8,10]oxatriazacyclotridecin-14(11H)-one] | 10 µM | 1 µM |
| 0.0088 µM | 1.1 µM | – | – | C[C@@H]1CCNC(=O)c2cnn3cc4c(nc23)N(Cc2cc(F)cnc2O1)[C@@H]1CCC[C@@H]1O4 [Compound 35, (3aR,11R,21aS)-7-fluoro-11-methyl-2,3,3a,11,12,13,14,21a-octahydro-1H,5H,15H-18,20-(metheno)cyclopenta[5,6][1,4]oxazino[4,3-e]pyrazolo[3,4-h]pyrido[2,3-b][1,5,7,11]oxatriazacyclotetradecin-15-one] | 0.0557 µM | < 0.0002 µM |
| 0.0622 µM | 1 µM | 0.651 µM | – | CC1(C)CCOc2ncc(F)cc2CN2c3nc4c(cnn4cc3O[C@H]3CCC[C@H]32)C(=O)N1 [Compound 34, (3aR,21aS)-7-fluoro-13,13-dimethyl-2,3,3a,11,12,13,14,21a-octahydro-1H,5H,15H-18,20-(metheno)cyclopenta[5,6][1,4]oxazino[4,3-e]pyrazolo[3,4-h]pyrido[2,3-b][1,5,7,11]oxatriazacyclotetradecin-15-one] | 0.408 µM | 0.05 µM |
| 2.36 µM | 8 µM | – | > 10 µM | C[C@H]1CNC(=O)c2cnn3cc4c(nc23)N(Cc2cc(F)cnc2O1)[C@H]1CC[C@H]1O4 [Compound 9, (2aS,10S,19aR)-6-fluoro-10-methyl-1,2,2a,11,12,19a-hexahydro-4H-16,18-(metheno)cyclobuta[5,6][1,4] oxazino[3,4-i]pyrazolo[4,3-f]pyrido[3,2-l][1,4,8,10]oxatriazacyclotridecin-13(10H)-one] | 1 µM | 0.0033 µM |
| 0.342 µM | 4 µM | – | 1.93 µM | C[C@H]1CNC(=O)c2cnn3cc4c(nc23)N(Cc2cc(F)cnc2O1)[C@@H]1CC[C@@H]1O4 [Compound 8, (2aR,10S,19aS)-6-fluoro-10-methyl-1,2,2a,11,12,19a-hexahydro-4H-16,18-(metheno)cyclobuta[5,6][1,4] oxazino[3,4-i]pyrazolo[4,3-f]pyrido[3,2-l][1,4,8,10]oxatriazacyclotridecin-13(10H)-one] | 0.189 µM | 0.0003 µM |
| 0.0689 µM | 2.99 µM | 0.396 µM | – | O=C1NC[C@@H](O)COc2ncc(F)cc2CN2c3nc4c1cnn4cc3O[C@H]1CCC[C@H]12 [Compound 43, (3aR,12R,21aS)-7-fluoro-12-hydroxy-2,3,3a,11,12,13,14,21a-octahydro-1H, 5H,15H-18,20-(metheno)cyclopenta[5,6][1,4] oxazino[4,3-e]pyrazolo[3,4-h]pyrido[2,3-b][1,5,7,11]oxatriazacyclotetradecin-15-one] | 0.359 µM | 0.109 µM |
| 0.0005 µM | 0.338 µM | 0.0174 µM | – | O=C1N[C@@H]2CC[C@@H](C2)Oc2ncc(F)cc2CN2c3nc4c1cnn4cc3O[C@H]1CCC[C@H]12 [Compound 42, (3aR,11S,14R,22aS)-7-fluoro-2,3,3a,12,13,14,15,22a-octahydro-1H, 5H-11,14-metheno-19,21-(metheno)cyclopenta[5,6][1,4] oxazino[4,3-e]pyrazolo[3,4-h]pyrido[2,3-b][1,5,7,11]oxatriazacyclopentadecin-16(11H)-one] | 0.041 µM | 0.0098 µM |
| 0.12 µM | 0.908 µM | 0.53 µM | – | O=C1N[C@H](C2CC2)COc2ncc(F)cc2CN2c3nc4c1cnn4cc3O[C@H]1CCC[C@H]12 [Compound 14, (3aR,12R,20aS)-12-cyclopropyl-7-fluoro-2,3,3a,12,13,20a-hexahydro-1H,5H-17-19-(metheno)cyclopenta[5,6][1,4] oxazino[4,3-i]pyrazolo[4,3-f]pyrido[3,2-l][1,4,8,10]oxatriazacyclotridecin-14(11H)-one] | 0.273 µM | 0.0266 µM |
| 4 µM | – | > 10 µM | > 10 µM | C[C@H]1CNC(=O)c2cnn3cc4c(nc23)N(Cc2cc(F)cnc2O1)[C@H]1COC[C@H]1O4 [Compound 31, (3aS,11S,20aS)-7-fluoro-11-methyl-1,3,3a,12,13,20a-hexahydro-5H-17,19-(metheno)furo[3′,4′:5,6][1,4]oxazino[3,4-i]pyrazolo[4,3-f]pyrido[3,2-l][1,4,8,10]oxatriazacyclotridecin-14(11H)-one] | 10 µM | 0.365 µM |
| 0.274 µM | 4 µM | – | 1.21 µM | C[C@@H]1COc2ncc(F)cc2CN2c3nc4c(cnn4cc3O[C@H]3CC[C@H]32)C(=O)N1 [Compound 10, (2aR,11R,19aS)-6-fluoro-11-methyl-1,2,2a,11,12,19a-hexahydro-4H-16,18-(metheno)cyclobuta[5,6][1,4] oxazino[3,4-i]pyrazolo[4,3-f]pyrido[3,2-l][1,4,8,10]oxatriazacyclotridecin-13(10H)-one] | 0.0783 µM | 0.0002 µM |
| 8 µM | > 10 µM | – | – | CC(=O)N1C[C@H]2Oc3cn4ncc5c4nc3N(Cc3cc(F)cnc3O[C@@H](C)CNC5=O)[C@H]2C1 [Compound 37, (3aS,11S,20aR)-2-acetyl-7-fluoro-11-methyl-2,3,3a,12,13,20a-hexahydro-1H, 5H-17,19-(metheno)pyrazolo[4,3-f]pyrido [3,2-l]pyrrolo[3′,4′:5,6][1,4]oxazino[3,4-i][1,4,8,10]oxatriazacyclotridecin-14(11H)-one] | 3 µM | 1.2 µM |
| 0.839 µM | – | – | 3 µM | C[C@@H]1COc2ncc(F)cc2CN2c3nc4c(cnn4cc3O[C@@H]3CC[C@@H]32)C(=O)N1 [Compound 11, (2aS,11R,19aR)-6-fluoro-11-methyl-1,2,2a,11,12,19a-hexahydro-4H-16,18-(metheno)cyclobuta[5,6][1,4] oxazino[3,4-i]pyrazolo[4,3-f]pyrido[3,2-l][1,4,8,10]oxatriazacyclotridecin-13(10H)-one] | 0.307 µM | 0.0004 µM |
| 0.0051 µM | 1.45 µM | 0.156 µM | – | O=C1N[C@H]2CC[C@H](C2)Oc2ncc(F)cc2CN2c3nc4c1cnn4cc3O[C@H]1CCC[C@H]12 [Compound 41, (3aR,11R,14S,22aS)-7-fluoro-2,3,3a,12,13,14,15,22a-octahydro-1H, 5H-11,14-metheno-19,21-(metheno)cyclopenta[5,6][1,4] oxazino[4,3-e]pyrazolo[3,4-h]pyrido[2,3-b][1,5,7,11]oxatriazacyclopentadecin-16(11H)-one] | 0.389 µM | 0.431 µM |
